Test results taken from US11066416B2, “Rapafucin derivative compounds and methods of use thereof” (The Johns Hopkins University, priority 2016, dated 2021).
pIC50: −log10 of the molar value.

What was measured:
[1] = tested on: nucleoside uptake (3H-Thymidine); experiment: Rel.Uptake: nucleoside uptake, single concentration assay, cell line as indicated in each table; assay type: cell-based; details: 293T, nucleoside uptake, response relative to DMSO
In short: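 3H-thymidine uptake measured in the indicated cell lines (e.g. 293T) grown in complete media. IC50 scored relative to DMSO control as Low >600 nM, Medium 300-600 nM, High <300 nM; Rel.Uptake single-concentration response vs DMSO scored Low >0.6, Medium 0.3-0.6, High <0.3.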

293T = experiment: Nucleoside uptake assay (uptake) using 3H-Thymidine, 293T; assay type: cell-based; details: 293T cells
Description: Nucleoside Uptake Assay (uptake). Nuceloside uptake assays were performed with using 3H-Thymidine as described in Guo et al. (2018) Nat. Chem. 11:254-63. Specific cell lines are indicated in each assay and cultured in complete growth media. Activity is scored according to the IC50 values relative to DMSO control. “Low” indicates an IC50 greater than 600 nM, “Medium” indicates an IC50 between 300 nM and 600 nM “High” indicates an IC50 less than 300 nM. “Rel.Uptake” refers to uptake activity characterization relative to a single concentration assay. “Low” indicates a response greater than 0.6 times the activity relative to DMSO, “Medium” indicates a response between 0.6 and 0.3 times the activity relative to DMSO, “High” indicates a response less than 0.3 times the activity relative to DMSO.

## COc1ccc(CC[C@H]2OC(=O)[C@@H]3CCCCN3C(=O)C(=O)C(C)(C)COC(=O)C=CCCN(C)C(=O)[C@H](CC(C)C)N(C)C(=O)[C@H]3CCCN3C(=O)[C@H](Cc3ccc(C(=O)Nc4cccnc4)cc3)NC(=O)[C@H](c3ccccc3)NC(=O)CCC(=O)Nc3cccc2c3)cc1OC [Compound 1562]
[1]
  Rel. Uptake, 293T: low
293T; Table 15
  Uptake, 293T: low

## COc1ccc(CC[C@H]2OC(=O)[C@@H]3CCCCN3C(=O)C(=O)C(C)(C)COC(=O)C=CCCN(C)C(=O)[C@H](CC(C)C)N(C)C(=O)[C@H]3CCCN3C(=O)[C@H](Cc3ccc(CNC(=O)c4ccccc4)cc3)NC(=O)[C@H](c3ccccc3)NC(=O)CCC(=O)Nc3cccc2c3)cc1OC [Compound 1585]
[1]
  Rel. Uptake, 293T: High (“High” indicates a response less than 0.3 times the activity relative to DMSO)
293T; Table 14
  pIC50: > 6.52

## COc1ccc(CC[C@H]2OC(=O)[C@@H]3CCCCN3C(=O)C(=O)C(C)(C)COC(=O)C=CCCN(C)C(=O)[C@H](CC(C)C)N(C)C(=O)[C@H]3CCCN3C(=O)[C@H](Cc3ccc(CNC(=O)Cc4ccccc4)cc3)NC(=O)[C@H](c3ccccc3)NC(=O)CCC(=O)Nc3cccc2c3)cc1OC [Compound 1586]
[1]
  Rel. Uptake, 293T: Med
293T; Table 14
  Uptake, 293T: Med

## COc1ccc(CC[C@H]2OC(=O)[C@@H]3CCCCN3C(=O)C(=O)C(C)(C)COC(=O)C=CCCN(C)C(=O)[C@H](CC(C)C)N(C)C(=O)[C@H]3CCCN3C(=O)[C@H](Cc3ccc(CNC(=O)CN(C)C)cc3)NC(=O)[C@H](c3ccccc3)NC(=O)CCC(=O)Nc3cccc2c3)cc1OC [Compound 1587]
[1]
  Rel. Uptake, 293T: Low (“Low” indicates a response greater than 0.6 times the activity relative to DMSO)
293T; Table 14
  pIC50: < 6.22

## COc1ccc(CC[C@H]2OC(=O)[C@@H]3CCCCN3C(=O)C(=O)C(C)(C)COC(=O)C=CCCN(C)C(=O)[C@H](CC(C)C)N(C)C(=O)[C@H]3CCCN3C(=O)[C@H](Cc3cccc(NC(C)=O)c3)NC(=O)[C@H](c3ccccc3)NC(=O)CCC(=O)Nc3cccc2c3)cc1OC [Compound 1588]
[1]
  Rel. Uptake, 293T: High (“High” indicates a response less than 0.3 times the activity relative to DMSO)
293T; Table 14
  pIC50: > 6.52

## COc1ccc(CC[C@H]2OC(=O)[C@@H]3CCCCN3C(=O)C(=O)C(C)(C)COC(=O)C=CCCN(C)C(=O)[C@H](CC(C)C)N(C)C(=O)[C@H]3CCCN3C(=O)[C@H](Cc3ccc(NC(=O)Cc4cccnc4)cc3)NC(=O)[C@H](c3ccccc3)NC(=O)CCC(=O)Nc3cccc2c3)cc1OC [Compound 1589]
[1]
  Rel. Uptake, 293T: Low (“Low” indicates a response greater than 0.6 times the activity relative to DMSO)
293T; Table 14
  pIC50: < 6.22

## COc1ccc(CC[C@H]2OC(=O)[C@@H]3CCCCN3C(=O)C(=O)C(C)(C)COC(=O)C=CCCN(C)C(=O)[C@H](CC(C)C)N(C)C(=O)[C@H]3CCCN3C(=O)[C@H](Cc3ccc(CC(=O)NCc4ccccc4)cc3)NC(=O)[C@H](c3ccccc3)NC(=O)CCC(=O)Nc3cccc2c3)cc1OC [Compound 1590]
[1]
  Rel. Uptake, 293T: High (“High” indicates a response less than 0.3 times the activity relative to DMSO)
293T; Table 15
  pIC50: < 6.22

## CCCCCCNC(=O)Cc1ccc(C[C@@H]2NC(=O)[C@H](c3ccccc3)NC(=O)CCC(=O)Nc3cccc(c3)[C@@H](CCc3ccc(OC)c(OC)c3)OC(=O)[C@@H]3CCCCN3C(=O)C(=O)C(C)(C)COC(=O)C=CCCN(C)C(=O)[C@H](CC(C)C)N(C)C(=O)[C@H]3CCCN3C2=O)cc1 [Compound 1591]
[1]
  Rel. Uptake, 293T: Med
293T; Table 15
  pIC50: < 6.22
